Values quoted from earlier work as cited in patent US6491952B1, “Cholesterol lowering composition” (Triple Crown AB, priority 1998, dated 2002).

Details: daily intake; references 1-5

SMILES	cholesterol lowering effect
CC[C@H](CC[C@@H](C)[C@H]1CC[C@H]2[C@@H]3CC[C@H]4C[C@@H](O)CC[C@]4(C)[C@H]3CC[C@]12C)C(C)C [β-sitostanol]	cholesterol lowering effect
CC[C@H](CC[C@@H](C)[C@H]1CC[C@H]2[C@@H]3CC=C4C[C@@H](O)CC[C@]4(C)[C@H]3CC[C@]12C)C(C)C [β-sitosterol]	cholesterol lowering effect
